Assay results published in patent US6114310A, “Efflux pump inhibitors” (priority 1998, dated 2000).

Tested on: Pseudomonas aeruginosa PAM1001
Assay: microbe, parasite or virus in culture
Type: cell-based
Protocol: The activity of efflux pump inhibitors (EPI) in combination with fluoroquinolones, such as levofloxacin, is assessed by the checkerboard assay (Antimicrobial Combinations. In Antibiotics in Laboratory Medicine, Ed. Victor Lorian, M. D., Fourth edition, 1996, pp 333-338) using broth microdilution method performed as recommended by the NCCLS (National Committee for Clinical Laboratory Standards (NCCLS). 1997. Methods for Dilution of Antimicrobial Susceptibility Tests for Bacteria That Grow Aerobically--Fourth Edition; Approved Standard. NCCLS Document M7-A4, Vol 17 No.2). The test organism used is Pseudomonas aeruginosa PAM1001.
In this assay, multiple dilutions of two drugs, namely the EPI and levofloxacin, are being tested, alone and in combination, at concentrations equal to, above and below their respective minimal inhibitory concentrations (MICs).
Stock solutions are further diluted, according to the needs of a particular assay, in Mueller Hinton Broth (MHB). Stock solution can be stored at -80° C. Quinolones are solubilized according to the instructions of the manufacturers, at a concentration of 1 mg/ml. They are then further diluted in MHB. Stock solution can be stored at -80° C.
The checkerboard assay is performed in microtiter plates. Levofloxacin is diluted in the x axis, each column containing a single concentration of levofloxacin. The EPI is diluted in the y axis, each row containing an equal concentration of EPI. The result of these manipulations is that each well of the microtiter plate contains a unique combination of concentrations of the two agents. Each EPI are tested independently.
The assay is performed in MHB with a final bacterial inoculum of 5×10^5 CFU/ml (from an early-log phase culture). Microtiter plates are incubated during 20 h at 35° C. and are read using a microtiterplate reader (Molecular Devices) at 650 nm as well as visual observation using a microtiterplate reading mirror.

[1] = Table 1, EPI Conc. μg/ml (number not given; column between 10 and 40 μg/ml)
[2] = Table 2, EPI Conc. μg/ml (number not given; column between 10 and 40 μg/ml)
[3] = Table 3, EPI Conc. μg/ml (number not given; column between 10 and 40 μg/ml)
[4] = Table 4, EPI Conc. μg/ml (number not given; column between 10 and 40 μg/ml)

Row | Substance | Levofloxacin MIC Against P. aeruginosa PAM1001 in Presence of Efflux Pump Inhibitor (EPI), Minimum Inhibitory Concentration (Table 1, EPI Conc. 0 μg/ml) [µg/mL] | Levofloxacin MIC Against P. aeruginosa PAM1001 in Presence of Efflux Pump Inhibitor (EPI), Minimum Inhibitory Concentration (Table 1, EPI Conc. 0.625 μg/ml) [µg/mL] | Levofloxacin MIC Against P. aeruginosa PAM1001 in Presence of Efflux Pump Inhibitor (EPI), Minimum Inhibitory Concentration (Table 1, EPI Conc. 5 μg/ml) [µg/mL] | Levofloxacin MIC Against P. aeruginosa PAM1001 in Presence of Efflux Pump Inhibitor (EPI), Minimum Inhibitory Concentration (Table 1, EPI Conc. 10 μg/ml) [µg/mL] | Levofloxacin MIC Against P. aeruginosa PAM1001 in Presence of Efflux Pump Inhibitor (EPI), Minimum Inhibitory Concentration (Table 1, EPI Conc. 40 μg/ml) [µg/mL] | Levofloxacin MIC Against P. aeruginosa PAM1001 in Presence of Efflux Pump Inhibitor (EPI), Minimum Inhibitory Concentration [1] [µg/mL] | Levofloxacin MIC Against P. aeruginosa PAM1001 in Presence of Efflux Pump Inhibitor (EPI), Minimum Inhibitory Concentration (Table 2, EPI Conc. 0 μg/ml) [µg/mL] | Levofloxacin MIC Against P. aeruginosa PAM1001 in Presence of Efflux Pump Inhibitor (EPI), Minimum Inhibitory Concentration (Table 2, EPI Conc. 0.625 μg/ml) [µg/mL] | Levofloxacin MIC Against P. aeruginosa PAM1001 in Presence of Efflux Pump Inhibitor (EPI), Minimum Inhibitory Concentration (Table 2, EPI Conc. 5 μg/ml) [µg/mL] | Levofloxacin MIC Against P. aeruginosa PAM1001 in Presence of Efflux Pump Inhibitor (EPI), Minimum Inhibitory Concentration (Table 2, EPI Conc. 10 μg/ml) [µg/mL] | Levofloxacin MIC Against P. aeruginosa PAM1001 in Presence of Efflux Pump Inhibitor (EPI), Minimum Inhibitory Concentration (Table 2, EPI Conc. 40 μg/ml) [µg/mL] | Levofloxacin MIC Against P. aeruginosa PAM1001 in Presence of Efflux Pump Inhibitor (EPI), Minimum Inhibitory Concentration [2] [µg/mL] | Levofloxacin MIC Against P. aeruginosa PAM1001 in Presence of Efflux Pump Inhibitor (EPI), Minimum Inhibitory Concentration (Table 3, EPI Conc. 0 μg/ml) [µg/mL] | Levofloxacin MIC Against P. aeruginosa PAM1001 in Presence of Efflux Pump Inhibitor (EPI), Minimum Inhibitory Concentration (Table 3, EPI Conc. 0.625 μg/ml) [µg/mL] | Levofloxacin MIC Against P. aeruginosa PAM1001 in Presence of Efflux Pump Inhibitor (EPI), Minimum Inhibitory Concentration (Table 3, EPI Conc. 5 μg/ml) [µg/mL] | Levofloxacin MIC Against P. aeruginosa PAM1001 in Presence of Efflux Pump Inhibitor (EPI), Minimum Inhibitory Concentration (Table 3, EPI Conc. 10 μg/ml) [µg/mL] | Levofloxacin MIC Against P. aeruginosa PAM1001 in Presence of Efflux Pump Inhibitor (EPI), Minimum Inhibitory Concentration (Table 3, EPI Conc. 40 μg/ml) [µg/mL] | Levofloxacin MIC Against P. aeruginosa PAM1001 in Presence of Efflux Pump Inhibitor (EPI), Minimum Inhibitory Concentration [3] [µg/mL] | Levofloxacin MIC Against P. aeruginosa PAM1001 in Presence of Efflux Pump Inhibitor (EPI), Minimum Inhibitory Concentration (Table 4, EPI Conc. 0 μg/ml) [µg/mL] | Levofloxacin MIC Against P. aeruginosa PAM1001 in Presence of Efflux Pump Inhibitor (EPI), Minimum Inhibitory Concentration (Table 4, EPI Conc. 0.625 μg/ml) [µg/mL] | further results
1 | D-Lysyl-β-N-(Cyclohexylmethyl)alanine Quinoline-3-amide Trifluoroacetate [Example 18] | 4 | 4 | 4 | 2 | 0.25 | 0.50 | 4 | 4 | 4 | 2 | 0.125 | 0.125 | 4 | 4 | 1 | 0.50 | 0.03 | 0.03 | 4 | 4 | Levofloxacin MIC Against P. aeruginosa PAM1001 in Presence of Efflux Pump Inhibitor (EPI), Minimum Inhibitory Concentration (Table 1, EPI Conc. […]): 4 µg/mL; Levofloxacin MIC Against P. aeruginosa PAM1001 in Presence of Efflux Pump Inhibitor (EPI), Minimum Inhibitory Concentration (Table 2, EPI Conc. […]): 4 µg/mL; Levofloxacin MIC Against P. aeruginosa PAM1001 in Presence of Efflux Pump Inhibitor (EPI), Minimum Inhibitory Concentration (Table 4, EPI Conc. 5 μg/ml): 2 µg/mL; Levofloxacin MIC Against P. aeruginosa PAM1001 in Presence of Efflux Pump Inhibitor (EPI), Minimum Inhibitory Concentration (Table 4, EPI Conc. 10 μg/ml): 0.50 µg/mL; Levofloxacin MIC Against P. aeruginosa PAM1001 in Presence of Efflux Pump Inhibitor (EPI), Minimum Inhibitory Concentration (Table 4, EPI Conc. 40 μg/ml): 0.25 µg/mL; Levofloxacin MIC Against P. aeruginosa PAM1001 in Presence of Efflux Pump Inhibitor (EPI), Minimum Inhibitory Concentration (Table 4, EPI Conc. […]): 4 µg/mL; Levofloxacin MIC Against P. aeruginosa PAM1001 in Presence of Efflux Pump Inhibitor (EPI), Minimum Inhibitory Concentration [4]: 0.125 µg/mL
2 | D-Lysyl-β-N-(Cyclopropylmethyl)alanine Quinoline-2-amide Trifluoroacetate [Example 29] | 4 | 4 | 1 | 0.125 | 0.125 | 0.125 | 4 | 4 | 0.125 | 0.06 | 0.06 | 0.06 | 4 | 4 | 2 | 0.25 | 0.008 | 0.03 | 4 | 4 | Levofloxacin MIC Against P. aeruginosa PAM1001 in Presence of Efflux Pump Inhibitor (EPI), Minimum Inhibitory Concentration (Table 3, EPI Conc. […]): 4 µg/mL; Levofloxacin MIC Against P. aeruginosa PAM1001 in Presence of Efflux Pump Inhibitor (EPI), Minimum Inhibitory Concentration (Table 4, EPI Conc. 5 μg/ml): 0.06 µg/mL; Levofloxacin MIC Against P. aeruginosa PAM1001 in Presence of Efflux Pump Inhibitor (EPI), Minimum Inhibitory Concentration (Table 4, EPI Conc. 10 μg/ml): 0.015 µg/mL; Levofloxacin MIC Against P. aeruginosa PAM1001 in Presence of Efflux Pump Inhibitor (EPI), Minimum Inhibitory Concentration (Table 4, EPI Conc. 40 μg/ml): 0.015 µg/mL; Levofloxacin MIC Against P. aeruginosa PAM1001 in Presence of Efflux Pump Inhibitor (EPI), Minimum Inhibitory Concentration [4]: 0.015 µg/mL
3 | D-Lysyl-β-N-(Cyclopropylmethyl)alanine Quinoline-3-amide Trifluoroacetate [Example 27] | 4 | 4 | 0.125 | 0.125 | 0.06 | 0.125 | 4 | 4 | 2 | 2 | 2 | 2 | 4 | 4 | 0.06 | 0.03 | 0.03 | 0.03 | 4 | 4 | Levofloxacin MIC Against P. aeruginosa PAM1001 in Presence of Efflux Pump Inhibitor (EPI), Minimum Inhibitory Concentration (Table 4, EPI Conc. 5 μg/ml): 2 µg/mL; Levofloxacin MIC Against P. aeruginosa PAM1001 in Presence of Efflux Pump Inhibitor (EPI), Minimum Inhibitory Concentration (Table 4, EPI Conc. 10 μg/ml): 2 µg/mL; Levofloxacin MIC Against P. aeruginosa PAM1001 in Presence of Efflux Pump Inhibitor (EPI), Minimum Inhibitory Concentration (Table 4, EPI Conc. 40 μg/ml): 1 µg/mL; Levofloxacin MIC Against P. aeruginosa PAM1001 in Presence of Efflux Pump Inhibitor (EPI), Minimum Inhibitory Concentration (Table 4, EPI Conc. […]): 4 µg/mL; Levofloxacin MIC Against P. aeruginosa PAM1001 in Presence of Efflux Pump Inhibitor (EPI), Minimum Inhibitory Concentration [4]: 1 µg/mL
